Laboratory results reported in ChEMBL document CHEMBL1201862, “PubChem BioAssay data set” (2004).
Activity calls are given as the source filed them.

How the values were obtained:
[1] = target: Heat shock protein HSP 90-alpha (Homo sapiens, UniProt P07900); assay type: functional, organism-based
HEK293 [2] = assay: SAR Analysis of small molecule inhibitors of T-cell specific antigen receptor-induced NF-kB activation in a HEK-293T cell line using a luminescence assay - Set 2. [Related pubchem assays (depositor defined):AID435003, AID435012, AID489026]; assay type: functional, cell-based; details: Homo sapiens
[3] = Trypanosoma cruzi growth suppression in host cells – NIH3T3 host cells, beta-gal luminescence, confirmation (AID 2044); assay type: functional, cell-based;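 also: intracellular parasites grown in NIH/3T3 mouse fibroblasts as host cells; luminescent beta-galactosidase reporter signal from transgenic T. cruzi replicating inside host cells; inhibitors lower the luminescence signal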
BJ [4] = assay: cells; assay type: functional, cell-based; details: Homo sapiens
[5] = Counterscreen for AddAB inhibitors: absorbance-based bacterial cell-based high throughput dose response assay for inhibitors of bacterial viability. [Related pubchem assays (depositor defined):AID435030, AID449728, AID449731, AID488942, AID488955, AID488956]; assay type: functional
Insulin-degrading enzyme [6] = target: T1, Insulin-degrading enzyme (Homo sapiens, UniProt P14735); assay: cellular IDE activation of Abeta substrate cleavage – fluorescence polarization, HEK cells, dose response (AID 588439); assay type: functional, cell-based
T1 sequence (P14735 whole entry): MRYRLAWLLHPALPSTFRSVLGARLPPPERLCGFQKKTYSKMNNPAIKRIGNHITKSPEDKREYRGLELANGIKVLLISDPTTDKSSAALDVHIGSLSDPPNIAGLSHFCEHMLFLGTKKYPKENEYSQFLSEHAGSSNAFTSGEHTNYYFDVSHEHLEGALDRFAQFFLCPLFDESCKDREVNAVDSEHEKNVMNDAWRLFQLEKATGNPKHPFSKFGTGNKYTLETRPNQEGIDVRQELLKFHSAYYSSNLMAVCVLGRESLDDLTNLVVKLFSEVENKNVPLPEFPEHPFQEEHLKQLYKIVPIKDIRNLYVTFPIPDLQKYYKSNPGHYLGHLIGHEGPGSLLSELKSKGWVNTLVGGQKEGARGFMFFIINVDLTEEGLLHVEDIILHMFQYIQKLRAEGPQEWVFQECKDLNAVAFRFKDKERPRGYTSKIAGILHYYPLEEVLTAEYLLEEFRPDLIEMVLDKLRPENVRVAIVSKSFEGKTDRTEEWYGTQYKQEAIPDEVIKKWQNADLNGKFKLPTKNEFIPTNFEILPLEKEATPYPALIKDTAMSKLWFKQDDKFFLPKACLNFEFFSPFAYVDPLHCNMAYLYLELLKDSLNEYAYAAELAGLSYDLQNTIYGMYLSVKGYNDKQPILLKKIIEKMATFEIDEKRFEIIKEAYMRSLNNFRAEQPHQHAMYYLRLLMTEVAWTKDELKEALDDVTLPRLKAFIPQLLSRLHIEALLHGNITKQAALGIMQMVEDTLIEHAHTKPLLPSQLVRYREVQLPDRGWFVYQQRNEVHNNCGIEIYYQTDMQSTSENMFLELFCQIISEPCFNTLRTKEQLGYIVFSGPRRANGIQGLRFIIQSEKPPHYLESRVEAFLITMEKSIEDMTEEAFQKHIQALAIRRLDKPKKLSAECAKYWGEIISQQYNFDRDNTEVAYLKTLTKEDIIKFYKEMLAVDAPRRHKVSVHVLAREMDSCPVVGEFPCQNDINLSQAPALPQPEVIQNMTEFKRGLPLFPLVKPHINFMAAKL

HEK293 [7] = assay: optical interference in Abeta FP readout, dose response, artefact control for IDE activator project, biochemical, fluorescence polarization (AID 588442); assay type: functional, cell-based; details: Homo sapiens
HEK293 [8] = assay: membrane integrity loss in HEK cells – cell-based, fluorescence, cytotoxicity control for IDE activator project, dose response (AID 588440); assay type: functional; details: Homo sapiens;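 also: cytotoxicity by LDH release measuring loss of membrane integrity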
cells = assay type: functional
Insulin-degrading enzyme [9] = target: T1, Insulin-degrading enzyme; assay: recombinant IDE activation, cell-free – biochemical, fluorescence polarization, counter-screen for IDE activator project, dose response (AID 588681)
[10] = alpha-synuclein stem-loop luciferase translation blockers – H4 neuroglioma cells, luminescence, confirmation (AID 1988); assay type: functional, cell-based
[11] = general cell-killing toxicity readout – plate reader, dry powder samples, cytotoxicity control for PAX8 inhibitor project, dose response (AID 743021); assay type: functional, cell-based
BJ [12] = assay: growth inhibition of engineered Ras-driven BJ cells – cell-based, alamar blue fluorescence, cherrypicked samples, dose response (AID 2631); assay type: functional; details: Homo sapiens;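 also: confirmatory dose-response assay in RAS-dependent BJ fibroblasts engineered with TERT, LT and ST, with cytotoxicity read by fluorescence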
Streptococcus = assay: GAS UMAA2166 growth inhibition – luminescence, BacTiterGlo, counter-screen for streptokinase expression inhibitor project, dose response (AID 1915); assay type: functional, organism-based;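 also: potency for reduction of bacterial viability or growth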
[13] = viability loss in THP-1 monocytes – THP-1 cells, cytotoxicity control for Vif-APOBEC3G degradation inhibitor project, dose response (AID 1117359); assay type: functional; details: THP-1
[14] = target: T2, Type-1 angiotensin II receptor (Homo sapiens, UniProt P30556); assay: antagonism of angiotensin II type 1 receptor – cell-based, uHTS hits, selectivity assay for APJ receptor antagonist project, dose response (AID 463214); assay type: functional;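 also: antagonist potency against angiotensin II stimulated AT1 response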
T2 sequence (P30556 whole entry): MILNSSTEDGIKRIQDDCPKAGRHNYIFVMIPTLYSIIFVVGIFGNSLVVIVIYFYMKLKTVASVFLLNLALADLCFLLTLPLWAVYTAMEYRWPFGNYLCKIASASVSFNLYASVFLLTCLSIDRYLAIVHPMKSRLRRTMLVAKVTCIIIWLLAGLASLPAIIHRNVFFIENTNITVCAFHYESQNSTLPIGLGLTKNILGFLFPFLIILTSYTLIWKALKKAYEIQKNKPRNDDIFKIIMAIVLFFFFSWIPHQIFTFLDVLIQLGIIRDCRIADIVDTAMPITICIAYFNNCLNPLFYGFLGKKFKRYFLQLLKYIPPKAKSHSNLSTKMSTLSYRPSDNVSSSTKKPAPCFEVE

Cytochrome P450 2C9 = Cytochrome P450 2C9 (Homo sapiens, UniProt P11712)
Cytochrome P450 2C9, sequence (P11712 whole entry): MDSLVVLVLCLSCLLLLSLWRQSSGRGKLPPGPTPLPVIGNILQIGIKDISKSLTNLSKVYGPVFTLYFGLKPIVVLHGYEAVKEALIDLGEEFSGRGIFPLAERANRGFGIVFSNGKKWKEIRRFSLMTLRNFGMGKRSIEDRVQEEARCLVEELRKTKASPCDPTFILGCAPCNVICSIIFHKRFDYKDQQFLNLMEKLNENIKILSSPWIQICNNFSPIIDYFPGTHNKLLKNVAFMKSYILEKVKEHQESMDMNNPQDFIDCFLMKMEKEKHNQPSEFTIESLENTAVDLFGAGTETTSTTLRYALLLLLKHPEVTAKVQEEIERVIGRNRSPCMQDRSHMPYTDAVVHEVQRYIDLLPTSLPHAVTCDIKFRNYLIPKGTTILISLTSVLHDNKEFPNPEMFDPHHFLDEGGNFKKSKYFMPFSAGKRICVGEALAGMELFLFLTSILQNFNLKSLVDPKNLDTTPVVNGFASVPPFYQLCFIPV

Large T antigen = Large T antigen (Simian virus 40, UniProt P03070); assay type: functional, Betapolyomavirus macacae;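 also: Confirmatory-stage PubChem screen for compounds that inhibit SV40 T antigen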
Large T antigen, sequence (P03070 whole entry): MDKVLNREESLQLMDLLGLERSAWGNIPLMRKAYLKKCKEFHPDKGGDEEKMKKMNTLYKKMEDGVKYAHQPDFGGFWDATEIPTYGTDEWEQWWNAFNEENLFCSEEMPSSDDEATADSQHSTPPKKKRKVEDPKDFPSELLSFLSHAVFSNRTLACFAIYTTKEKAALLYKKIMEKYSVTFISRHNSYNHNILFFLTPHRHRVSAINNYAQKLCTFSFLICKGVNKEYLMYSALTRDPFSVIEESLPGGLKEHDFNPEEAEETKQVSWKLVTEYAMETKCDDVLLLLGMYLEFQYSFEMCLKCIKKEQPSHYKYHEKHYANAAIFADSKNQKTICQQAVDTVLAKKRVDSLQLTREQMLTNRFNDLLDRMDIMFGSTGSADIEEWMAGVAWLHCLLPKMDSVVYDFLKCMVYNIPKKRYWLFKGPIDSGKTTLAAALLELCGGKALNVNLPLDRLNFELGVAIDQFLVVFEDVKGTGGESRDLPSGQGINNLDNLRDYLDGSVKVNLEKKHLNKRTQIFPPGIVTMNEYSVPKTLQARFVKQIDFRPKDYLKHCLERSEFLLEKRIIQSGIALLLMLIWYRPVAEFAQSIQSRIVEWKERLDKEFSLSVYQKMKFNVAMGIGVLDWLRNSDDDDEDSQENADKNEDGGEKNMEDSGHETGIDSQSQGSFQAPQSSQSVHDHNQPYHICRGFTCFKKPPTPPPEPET

[15] = viability loss in Vero cells – cytotoxicity control for Vif-APOBEC3G degradation inhibitor project, dose response (AID 1117358); assay type: functional; details: Vero
Vero = assay: viability of Vero cells under compound – cytotoxicity control for flavivirus capping enzyme inhibitors (AID 588742); assay type: functional; details: Chlorocebus sabaeus
SUMO-activating enzyme [16] = target: T3, SUMO-activating enzyme (Homo sapiens, UniProt Q9UBT2); assay: blockers of UBC9-mediated SUMO conjugation – biochemical, AlphaScreen, SUMOylation inhibitor project, confirmation (AID 2018); assay type: functional
T3 sequence (Q9UBE0 whole entry): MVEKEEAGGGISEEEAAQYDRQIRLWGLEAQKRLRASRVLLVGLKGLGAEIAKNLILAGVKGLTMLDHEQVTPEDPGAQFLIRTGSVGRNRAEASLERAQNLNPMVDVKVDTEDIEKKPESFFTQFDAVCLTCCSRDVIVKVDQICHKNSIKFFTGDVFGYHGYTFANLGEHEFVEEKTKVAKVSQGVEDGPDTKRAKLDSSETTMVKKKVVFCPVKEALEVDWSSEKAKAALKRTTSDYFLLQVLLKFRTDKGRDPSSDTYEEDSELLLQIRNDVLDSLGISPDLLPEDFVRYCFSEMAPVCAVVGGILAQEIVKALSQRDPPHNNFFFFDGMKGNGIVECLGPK
T3 sequence (Q9UBT2 whole entry): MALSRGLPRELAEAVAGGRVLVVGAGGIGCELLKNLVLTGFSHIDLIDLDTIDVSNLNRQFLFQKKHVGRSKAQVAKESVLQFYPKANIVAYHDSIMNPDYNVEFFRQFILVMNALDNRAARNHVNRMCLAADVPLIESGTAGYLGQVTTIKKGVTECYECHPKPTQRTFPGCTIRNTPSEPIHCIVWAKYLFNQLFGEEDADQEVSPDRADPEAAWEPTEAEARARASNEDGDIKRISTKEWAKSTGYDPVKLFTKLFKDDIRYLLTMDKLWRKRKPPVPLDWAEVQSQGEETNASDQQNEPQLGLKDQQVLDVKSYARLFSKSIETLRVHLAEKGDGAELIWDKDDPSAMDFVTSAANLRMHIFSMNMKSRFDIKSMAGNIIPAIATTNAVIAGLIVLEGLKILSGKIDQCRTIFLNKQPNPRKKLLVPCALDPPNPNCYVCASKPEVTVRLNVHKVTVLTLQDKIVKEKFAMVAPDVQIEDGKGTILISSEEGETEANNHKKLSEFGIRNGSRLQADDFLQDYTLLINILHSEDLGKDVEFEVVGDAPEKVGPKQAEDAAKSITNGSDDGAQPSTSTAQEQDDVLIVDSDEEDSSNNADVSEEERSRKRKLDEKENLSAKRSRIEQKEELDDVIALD

SUMO-activating enzyme [17] = target: T3, SUMO-activating enzyme; assay: blockers of SAE1/SAE2–UBC9 SUMO transfer – biochemical, HTRF, uHTS, primary screen (AID 2006); assay type: protein-complex assay

Compound: CC(=O)NC(c1ccc2ccccc2c1)c1ccc2cccnc2c1O (configuration not stated)
- AC50 [1]: 1.98 µM (active)
- IC50 (HEK293 [2]): 1.88 µM (active)
- EC50 [3]: 0.306 µM (active)
- EC50 (BJ [4]): 6.35 µM (active)
- IC50 [5]: > 118 µM (inactive)

Compound: CCOC(=O)C1=C(c2ccccc2)N=C(N)NC1c1ccc(OCc2ccc(Cl)cc2)c(OC)c1 (configuration not stated)
- EC50 (Insulin-degrading enzyme [6]): 42.5 µM (inactive)
- EC50 (HEK293 [7]): > 55.9 µM (inactive)
- IC50 (HEK293 [8]): 13 µM (inactive)
- IC50 (cells): 9.22 µM (active)
- EC50 (Insulin-degrading enzyme [9]): 52.1 µM (inactive)

Compound: CCOC(=O)c1c(C)[nH]c2c1-c1ccccc1C(=O)C2=O
- EC50 [10]: 0.254 µM (active)
- AC50 [11]: 4.93 µM (active)
- EC50 (BJ [12]): 0.554 µM (inconclusive)

Compound: O=[N+]([O-])c1c(NCCO)cc(Sc2nc3ccccc3s2)c2nonc12
- EC50 (Streptococcus): 3.39 µM (active)
- CC50 [13]: 22.9 µM (active)
- IC50 [14]: 1.9 µM (active)
- AC50 (Cytochrome P450 2C9): 0.631 µM (inconclusive)
- IC50 (Large T antigen): 21.2 µM (active)
- CC50 [15]: > 40 µM (active)
- CC50 (Vero): 32.9 µM (active)

Compound: CCOC(=O)c1c(C)oc2c1c(/C=N/CCC(=O)O)c(O)c1ccccc12
- IC50 (SUMO-activating enzyme [16]): 3.71 µM (active)
- IC50 (SUMO-activating enzyme [17]): 28.8 µM (active)
